# Measurements reported in patent US20230121313A1 (priority 2019, published 2023).
# Read-outs that look alike come from different tables or passages of the source. Marks after values point to notes of the source that are not given here.
# Experiments:
# [1] = for QC sample long-term storage stability: human plasma QC sample at −20° C.; for QC sample bench-top stability: human plasma QC sample; for QC sample bench-top stability / Processed sample stability: room temperature; for Stock solution stability (spike solutions): ketamine/norketamine spike solutions at −20° C.; for Whole Blood Stability: room temperature and in an ice-water bath (0-4° C.)
# Experimental: This example provides an LC-MS/MS method for the determination of ketamine and norketamine in sodium heparin human plasma using ketamine-d4 and norketamine-d4 as the respective internal standards (IS).
# Retention time and peak area were determined by Analyst® Data Acquisition/Processing Software (Version 1.4.2). Analyte concentrations were obtained from a calibration curve constructed by plotting the peak area ratio versus the concentration using Watson LIMS (Version 7.3). Watson LIMS and Microsoft Office Excel were used for statistical calculations. When Office Excel was used the calculations were 100% audited. Concentrations were calculated using linear regression according to the following equation: […]
# Selectivity is defined as the ability of a chromatographic method to measure a response from the analyte without interference from the biological matrix. This was accomplished by evaluating six individual lots of human plasma prepared as blank and at the lower limit of quantitation (LLOQ, 0.500 ng/mL).
# The matrix effect is defined as the suppression or enhancement of ionization of analytes by the presence of matrix components in the biological samples. See, e.g., C. T. Viswanathan, “Quantitative Bioanalytical Methods Validation and Implementation: Best Practices for Chromatographic and Ligand Binding Assays,” Pharmaceutical Research, Vol. 24, No. 10, October 2007, p. 1969. The matrix effect was evaluated by extracting single replicates of six lots of blank human plasma and spiking each lot at the Low and High QC concentration levels (1.50 ng/mL and 375 ng/mL) post extraction. The area ratios of the six lots of post-extraction spiked plasma samples were compared to the mean area ratio obtained from three replicates of the neat solution prepared at the same concentration level in purified water.
# The linearity of the method was evaluated at a linear range of 0.500/0.500-500/500 ng/mL for ketamine/norketamine in human plasma. Linear regression (with a weighting factor of 1/x2) was used to produce the best fit for the concentration-detector response relationship for ketamine and norketamine in human plasma.
# The validation was conducted with a target LLOQ of 0.500 ng/mL for ketamine and norketamine in human plasma. To evaluate the sensitivity, six QC samples prepared at the LLOQ were analyzed during three individual batch runs as part of the intra-run and inter-run accuracy and precision for the method. The concentrations were calculated with the calibration curve.
# The intra-run and inter-run accuracy and precision of the method were investigated at four different QC concentration levels (0.500 ng/mL (LLOQ), 1.50 ng/mL, 80.0 ng/mL, and 375 ng/mL).
# Recoveries were calculated according to the following formula: […]
# To assess the reinjection reproducibility, an analyte batch containing a standard curve and QC samples was reinjected after being kept at room temperature for 161.5 hours.
# [2] = Pharmacokinetics of intranasal esketamine 28, 56, 84 mg in healthy subjects (Example 9); conditions: for AUClast / AUC∞ / Cmax / t1/2 / Metabolite/Parent Ratio AUClast / Metabolite/Parent Ratio AUC∞ / Metabolite/Parent Ratio Cmax: mean; for Tmax: median; for Metabolite/Parent Ratio AUClast / Metabolite/Parent Ratio AUC∞ / Metabolite/Parent Ratio Cmax: noresketamine to esketamine
# Experimental: This was an open-label, single-center study. The subjects were healthy Caucasian men and women, 20 to 55 years of age, inclusive. […] The solution consisted of:
# Pharmacokinetic blood samples for measurement of esketamine and noresketamine concentrations in plasma were collected from predose until up to 24 hours after each intranasal esketamine regimen on Day 1 of each period.
# Blood samples (4 mL each) for determination of esketamine and noresketamine plasma concentrations were collected into the appropriate collection tube (e.g., Vacutainer®) at timepoints 0.00, 0.12, 0.20, 0.37, 0.53, 0.67, 0.83, 1.00, 1.25, 1.50, 2.00, 3.00, 4.00, 6.00, 9.00, 12.00, 18.00, and 24.00 h. The total amount of blood to be drawn for clinical laboratory tests and PK evaluations is approximately 327 mL.
# Plasma samples were analyzed for esketamine and noresketamine concentrations using the validated, specific and sensitive liquid chromatography coupled to tandem mass spectrometry (LC-MS/MS) achiral method of Example 8.
# Serial PK blood samples (4 mL each) were collected for a 24-hour period from each subject (Periods 1, 2, and 3).
# The following key parameters of esketamine and noresketamine in plasma were calculated using noncompartmental methods and actual sampling times: Cmax, tmax, AUClast, AUC∞, t1/2,λ, and λz.
# [3] = tested on: PCG/RSC of adult female Sprague Dawley rats; conditions: 3 hours after a single intraperitoneal injection (Jevtovic-Todorovic 2000); cited from earlier work
# [4] = tested on: MDD/TRD subjects; conditions: 52-week safety study in MDD/TRD subjects (Berman et al., 2011); cited from earlier work
# [5] = tested on: subjects with MDD at imminent risk for suicide; conditions: double-blind phase; all randomized analysis set; N=36
# Excerpt: Among 68 randomized subjects, 66 were included in the safety analysis set (defined as receiving at least one dose of study medication in the double-blind phase). […] All safety subjects (N=66) were included in the intent-to-treat (ITT) analysis set (defined as receiving at least one dose of study medication during the double-blind phase and having both the baseline and the Day 1, 4-hour postdose evaluation for the MADRS total score). Forty-nine subjects were included in the safety (FU) analysis set (defined as all subjects who have at least 1 visit during the follow up phase).
# [6] = freeze (−20° C.)/thaw (ice-water bath)
# [7] = freeze (−20° C.)/thaw (room temperature)
# [8] = stock solutions at room temperature under white light
# [9] = noresketamine in plasma after intranasal esketamine 28 mg (Treatment A)
# [10] = noresketamine in plasma after intranasal esketamine 56 mg (Treatment B)
# [11] = noresketamine in plasma after intranasal esketamine 84 mg (Treatment C)
compound,measurement,setting,value
NC1(c2ccccc2Cl)CCCCC1=O (stereo not shown) [Norketamine],QC sample freeze/thaw stability,[1]; [6],3 freeze (−20° C.)/thaw (ice-water bath) cycles
same,QC sample freeze/thaw stability,[1]; [7],3 freeze (−20° C.)/thaw (room temperature) cycles
same,QC sample long-term storage stability,[1],1552 days at −20 °C
same,QC sample bench-top stability,[1],68.5 hours at room temp
same,Stock solution stability (spike solutions),[1],610 days at −20 °C for ketamine/norketamine spike solutions
same,Processed sample stability,[1],146.5 hours at room temperature
same,Whole Blood Stability,[1],120 minutes at room temperature and in an ice-water bath (0-4° C.)
same,Stock solution stability,[1]; [8],6 h
same,Stock solution stability,[1]; stock solutions at −20° C.,15100 h
NC1(c2ccccc2Cl)CCCCC1=O (stereo not shown) [noresketamine],"Mean ratio of noresketamine to esketamine, AUClast","[2]; 28, 56, 84 mg",3.62 to 4.32
same,"Mean ratio of noresketamine to esketamine, AUC∞","[2]; 28, 56, 84 mg",3.80 to 4.46
same,"Mean ratio of noresketamine to esketamine, Cmax","[2]; 28, 56, 84 mg",1.96 to 2.55
same,"Median tmax of noresketamine, range across regimens","[2]; healthy subjects, intranasal esketamine 28, 56, 84 mg",1.25 to 1.5 h
same,AUC (AUClast and AUC∞) variability,[2]; noresketamine in plasma,17.0% to 21.3
same,Between-subject variability for Cmax,[2]; noresketamine in plasma,25.8% to 33.7
same,AUClast,[2]; [9],454 ng·h/mL
same,AUC∞,[2]; [9],508 ng·h/mL
same,Cmax,[2]; [9],92.8 ng/mL
same,t1/2,[2]; [9],7.74 h
same,Tmax,[2]; [9],1.25 h
same,AUClast,[2]; [10],851 ng·h/mL
same,AUC∞,[2]; [10],924^c h*ng/mL
same,Cmax,[2]; [10],154 ng/mL
same,t1/2,[2]; [10],7.71^c h
same,Tmax,[2]; [10],1.50 h
same,AUClast,[2]; [11],1287 ng·h/mL
same,AUC∞,[2]; [11],1392^b h*ng/mL
same,Cmax,[2]; [11],241 ng/mL
same,t1/2,[2]; [11],7.48^b h
same,Tmax,[2]; [11],1.50 h
same,Metabolite/Parent Ratio AUClast,[2]; esketamine 28 mg (Treatment A),3.62
same,Metabolite/Parent Ratio AUC∞,[2]; esketamine 28 mg (Treatment A),3.80^b
same,Metabolite/Parent Ratio Cmax,[2]; esketamine 28 mg (Treatment A),1.96
same,Metabolite/Parent Ratio AUClast,[2]; esketamine 56 mg (Treatment B),4.07
same,Metabolite/Parent Ratio AUC∞,[2]; esketamine 56 mg (Treatment B),4.22^b
same,Metabolite/Parent Ratio Cmax,[2]; esketamine 56 mg (Treatment B),2.28
same,Metabolite/Parent Ratio AUClast,[2]; esketamine 84 mg (Treatment C),4.32
same,Metabolite/Parent Ratio AUC∞,[2]; esketamine 84 mg (Treatment C),4.46^d
same,Metabolite/Parent Ratio Cmax,[2]; esketamine 84 mg (Treatment C),2.55
same,"Mean t1/2, range across regimens","[2]; noresketamine, esketamine 28, 56, 84 mg",7.48 to 7.74 h
"CNC1(c2ccccc2Cl)CCCCC1=O (racemic) [ketamine, reference compound]",ED50-value for the induction of neuronal vacuolation in the PCG/RSC,[3],47.5 mg/kg body weight
same,QC sample freeze/thaw stability,[1]; [6],3 freeze (−20° C.)/thaw (ice-water bath) cycles
same,QC sample freeze/thaw stability,[1]; [7],3 freeze (−20° C.)/thaw (room temperature) cycles
same,QC sample long-term storage stability,[1],1552 days at −20 °C
same,QC sample bench-top stability,[1],68.5 hours at room temp
same,Stock solution stability (spike solutions),[1],610 days at −20 °C for ketamine/norketamine spike solutions
same,Processed sample stability,[1],146.5 hours at room temperature
same,Whole Blood Stability,[1],120 minutes at room temperature and in an ice-water bath (0-4° C.)
same,Stock solution stability,[1]; [8],6 h
same,Stock solution stability,[1]; stock solutions at −20° C.,15100 h
OCCOCCN1CCN(C2=Nc3ccccc3Sc3ccccc32)CC1 [quetiapine],Rate of discontinuation due to adverse events,[4],23.7%
CN[C@]1(c2ccccc2Cl)CCCCC1=O [Esketamine 84 mg],"Withdrawn: Adverse event, % of subjects",[5],(13.9%)
same,"Withdrawn: Adverse event, number of subjects",[5],5
same,"Withdrawn: Lack of Efficacy, % of subjects",[5],(2.8%)
same,"Withdrawn: Lack of Efficacy, number of subjects",[5],1
